Like-named read-outs stand apart in the source and are kept apart here.
What was measured:
M. smegmatis [1] = assay: Checkerboard assay with OCG; assay type: cell-based, Mycobacterium smegmatis; conditions: for Interaction / FICI (Fractional Inhibitory Concentration Index): drug in combination with OCG; for FICI (Fractional Inhibitory Concentration Index): range of three experiments
[2] = test system: M. smegmatis membrane potential (Δψ); conditions: OCG at 2×MIC; CCCP at various concentrations
Method: Bacterial cells were grown to late log-phase in 7H9. Cells were centrifuged at 3000×g for 5 min at 25° C., washed twice and resuspended in 10 mL of 5 mM HEPES buffer, pH 7.2 supplemented with 1 mM glucose. OD600 of the cells was then adjusted to 0.4. The cell suspension was treated with 1 μM of the potentiometric probe 3,3′-Dipropylthiadicarbocyanine Iodide (DiSC3(5)) was added. It was incubated at 37° C., and monitored the quenching of DiSC3(5) dye in the presence of M. smegmatis cells for 30 min. In a black-sided 96-well microtiter plate, polymer solution was added to the plate and serially diluted two-fold in 50 mM HEPES buffer supplemented with 1 mM glucose and 2% DMSO for a final volume of 50 μL per well and 1% DMSO. After 30 min of quenching DiSC3(5), 50 μL of the bacterial suspension with dye was added to the polymer-containing wells. […] Fluorescence was recorded 590/635 nm (excitation/emission) for 1 h every 10 min on a BioTek Synergy H1 plate reader. Assay was performed at least three independent experiments.

[3] = 2 mM OCG in 100 mM NaCl, titrated with 25 mM NaOH
Method: The pH was measured using a Mettler Toledo in Lab Ultra-Micro pH Probe. The acidified solution was titrated at 5 μL increments of 25 mM NaOH. The pH readings were recorded from pH ˜2.5-11. After plotting ΔpH/Δvolume of NaOH, the two points where the largest change in pH occurred were found. The median volume between the two maxima was identified as the point where pH=pKa. Solution of 100 mM NaCl served as control. Experiment was performed in triplicates.

M. smegmatis mc^2155 [4] = conditions: 4×MIC for 1 h
Method: Similarly, outer membrane permeability assay using 10 μM N-Phenyl-2-naphthylamine in 4% acetone was used as a non-fluorescent dye that upon hydrophobic interaction, it emits fluorescence signal. Cells were grown to mid-log phase (OD600=0.5), centrifuged at 4000×g for 2 min at 25° C., washed and resuspended in 5 mM HEPES buffer, pH 7.2. Compounds were made in HEPES buffer and 50 μL was added to an optical bottom black-sided 96-well microtiter plate. Then 50 μL of 40 μM NPN solution and 100 μL of cell suspension were added to the plate. Fluorescence was measured at 350/400 nm (excitation/emission) for 1 h. Experiments were performed in triplicates.

S. aureus ATCC 6538 = assay type: cell-based, Staphylococcus aureus
MSMEG_2694 = conditions: 2×MIC for an hour, sigA housekeeping gene
Method: (§1) The bacterial cell suspension centrifuged at 40000×g for 5 min at 25° C. and resuspended in 1 mL guanidine thiocyanate (GTC) buffer. The cells were spun down at 12000×g for 5 min and resuspended in 750 μL of TRIzol reagent (Invitrogen), and added to 0.5 mL of 0.1 mm zirconia/silica beads. Cells were lysed in a bead beater for two 1 min intervals with incubation on ice between intervals. Afterwards, 2004 of chloroform was added to the tube, mixed, and spun at 12000×g for 15 min. The aqueous layer was carefully removed to 500 μL of RNase-free ethanol and mixed. From the solution, 700 μL were loaded onto Rnease Kit (Qiagen) miniprep columns and spun at 10000×g for 1 min. The remainder of the solution was then loaded and spun. The column was washed with 700 μL of RW1 buffer and discarded. The column was then washed twice with 500 μL RPE buffer and spun as previously described. The column was transferred to a new tube to elute the sample using 30 μL of RNase-free water and spun.
(§2) To ensure there is DNA-free, the sample was treated using TURBO DNA-free kit (Ambion) where a 1 μL of DNase and 3.5 μL of 10×DNase Buffer were added to the 30 μL of RNA and incubated for 1 h at 37° C. […] The concentration of RNA was determined through a ThermoFisher multichannel NanoDrop and adjusted to 50 ng/mL for cDNA reaction. […]

E. coli ATCC 8739 = assay type: cell-based, Escherichia coli
M. smegmatis [5] = conditions: after 2 h of treatment
M. smegmatis mc^2155 [6] = conditions: 2×MIC
Method: M. smegmatis mc^2155 was culture as previously described in the MIC assay. […] After treatment period, 500 μL of the solution was centrifuge at 3000×g for 30 s at 25° C. The pellet was resuspended in 1 mL glutaraldehyde/cacodylate fixative solution and stored at −20° C. before imaging. Images were analyzed for significant morphological changes. The frequency of membrane ruffling, membrane delamination, cytosolic leakage, and cells that appeared hollowed (i.e., cell death) were counted and divided by the total cell number per frame. The percent of the observed cell envelope stress indicators was used for statistical analysis.

MSMEG_5072 = conditions: 2×MIC for an hour, sigA housekeeping gene
Method: as §1, §2

M. smegmatis mc^2155 [7] = assay type: cell-based, Mycobacterium smegmatis
[8] = Mycolicibacterium smegmatis, single agent in checkerboard assay, M. smegmatis, read-out: MIC

## COc1nc2ccc(Br)cc2cc1[C@@H](c1ccccc1)[C@@](O)(CCN(C)C)c1cccc2ccccc12 [Bedaquiline (BDQ), bedaquiline]
M. smegmatis [1]; Mycolicibacterium smegmatis
  MIC: 0.12 µg/mL
M. smegmatis [1]; M. smegmatis
  Interaction: Synergy
  FICI (Fractional Inhibitory Concentration Index): 0.38-0.5

## CC(C)/N=c1\cc2n(-c3ccc(Cl)cc3)c3ccccc3nc-2cc1Nc1ccc(Cl)cc1 [Clofazimine (CLZ), clofazimine]
M. smegmatis [1]; [8]
  MIC: 2.5 µg/mL
M. smegmatis [1]; M. smegmatis
  Interaction: Additive
  FICI (Fractional Inhibitory Concentration Index): 0.5-0.75
M. smegmatis [1]; M. smegmatis, listed as CLZ
  FICI (Fractional Inhibitory Concentration Index): 0.50-0.75

## CO[C@H]1/C=C/O[C@@]2(C)Oc3c(C)c(O)c4c(O)c(c(/C=N/N5CCN(C)CC5)c(O)c4c3C2=O)NC(=O)/C(C)=C\C=C\[C@H](C)[C@H](O)[C@@H](C)[C@@H](O)[C@@H](C)[C@H](OC(C)=O)[C@@H]1C [Rifampin (RIF), rifampin]
M. smegmatis [1]; [8]
  MIC: 8 µg/mL
M. smegmatis [1]; M. smegmatis
  Interaction: Additive
  FICI (Fractional Inhibitory Concentration Index): 1-2

## cyanide m-chlorophenyl hydrazone [CCCP, reference compound]
[2]
  membrane potential (Δψ), DiSC3(5) fluorescence: did not exhibit concentration-dependent potential changes

## oligo(carbamoylated guanidine) [OCG]
M. bovis BCG
  MIC90 BCG: 25 µg/mL
B. cepacia ATCC 2516
  MIC90 Bc: >200 µg/mL
Mab 3690 R
  MIC90 Mab R: 188 µg/mL
  change of MIC, Mab R morphotype compared with S: ˜three-fold increase
[3]
  pKa: ~5
M. smegmatis mc^2155 [4]
  NPN fluorescence (membrane damage): no fluorescence intensity increase
Mab 3690 S
  MIC90 Mab S: 65 µg/mL
S. aureus ATCC 6538
  MIC90 Sa: 50 µg/mL
MSMEG_2694
  increased expression level of MSMEG_2694 compared to control Msm: 50 fold
C. albicans ATCC 10231
  MIC90 Ca: >200 µg/mL
E. coli ATCC 8739
  MIC90 Ec: >200 µg/mL
M. smegmatis [5]
  intracellular ATP levels (RLUs/CFUs): depletion of ATP levels
M. smegmatis [1]; single agent in checkerboard assay, M. smegmatis
  MIC: 6 µM
M. smegmatis mc^2155 [6]; starting from 1 h
  TEM: membrane ruffling and delamination: signs of membrane stress including ruffling and delamination were observed
M. smegmatis mc^2155 [6]; up to 24 h incubation
  TEM: frequency of cytosolic leakage, treated vs non-treated: no significant difference
MSMEG_5072
  increased expression level of MSMEG_5072 compared to control Msm: 10 fold
P. aureginosa ATCC 15442
  MIC90 Pa: >200 µg/mL
M. smegmatis mc^2155 [7]
  change of MIC, Msm cultured in LB compared with 7H9 medium: increased ˜four times
M. smegmatis mc^2155 [7]; M. smegmatis mc 155, Table 2
  MIC90 Msm: 6 µg/mL
M. smegmatis mc^2155 [7]; Msm mc^2 155 grown in 7H9 medium
  MIC90 Msm: 6 µg/mL
M. smegmatis mc^2155 [7]; Msm mc^2 155 grown in LB
  MIC90 Msm: 25 to 50 µg/mL

Source: patent US11857521B1, “Anti-mycobacterial drugs” (priority 2022, dated 2024)
